This passage reports Kd results from publication PMC10003360, “Antiviral Effect of Ginsenosides rk1 against Influenza a Virus Infection by Targeting the Hemagglutinin 1-Mediated Virus Attachment” (International Journal of Molecular Sciences, 2023).

The target of the assay is T1, HA1 (Influenza A virus (A/Puerto Rico/8/1934(H1N1)), UniProt P03452).
T1 construct: gene HA; HA1 subunit alone, cut from precursor HA0; purchased from Sino Biological; immobilised on sensor chip
Description: biochemical. The class given is binding.

T1 sequence (P03452 18-342 limits assumed): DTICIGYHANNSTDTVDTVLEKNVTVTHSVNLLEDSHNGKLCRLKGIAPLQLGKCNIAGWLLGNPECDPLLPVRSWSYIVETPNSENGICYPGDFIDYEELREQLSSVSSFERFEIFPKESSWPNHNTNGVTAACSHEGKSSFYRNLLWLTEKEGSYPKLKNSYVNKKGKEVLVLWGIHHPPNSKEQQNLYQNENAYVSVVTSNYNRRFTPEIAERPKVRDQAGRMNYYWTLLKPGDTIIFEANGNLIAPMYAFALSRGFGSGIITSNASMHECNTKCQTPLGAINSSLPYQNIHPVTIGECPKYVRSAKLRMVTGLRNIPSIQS

As a reminder, the Kd is a measure of binding affinity in units of concentration. Lower therefore signals a tighter complex. Compound `C=C(CCC=C(C)C)[C@H]1CC[C@]2(C)[C@@H]1[C@H](O)C[C@@H]1[C@@]3(C)CC[C@H](O[C@@H]4O[C@H](CO)[C@@H](O)[C@H](O)[C@H]4O[C@@H]4O[C@H](CO)[C@@H](O)[C@H](O)[C@H]4O)C(C)(C)[C@@H]3CC[C@]12C` [G-rk1, ginsenoside rk1] registered an equilibrium dissociation constant (Kd) of 93.3 nM.
